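In this assay, cells in 96-well plates receive the compound at five concentrations for 48 hours. Endpoints are linearly interpolated between the surrounding concentrations. GI50 = concentration required for 50% inhibition of growth.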 The source made the active and inactive calls. Rule as the data show it: active = GI50 up to about 1.1 µM and inactive = higher.
Legend:
Experiment in all cases: growth of human tumour cells (NCI), 48 h
[1] = tested on: T47D
[2] = tested on: OVCAR-8
[3] = tested on: UACC-62
[4] = tested on: NCI-H226
[5] = tested on: RPMI-8226
[6] = tested on: OVCAR-3
[7] = tested on: SK-OV-3
[8] = tested on: EKVX
[9] = tested on: SK-MEL-5
[10] = tested on: SNB-19
[11] = tested on: MOLT-4
[12] = tested on: HCT-15
[13] = tested on: BT-549
[14] = tested on: OVCAR-4
[15] = tested on: IGROV-1
[16] = tested on: SNB-75
[17] = tested on: SK-MEL-2
[18] = tested on: A549
[19] = tested on: U-251
[20] = tested on: HCC 2998
[21] = tested on: MCF7
[22] = tested on: DU-145
[23] = tested on: SF-539
[24] = tested on: HOP-62
[25] = tested on: UO-31
[26] = tested on: NCI-H460
[27] = tested on: HL-60
[28] = tested on: OVCAR-5
[29] = tested on: SF-268
[30] = tested on: HCT-116
[31] = tested on: UACC-257
[32] = tested on: HOP-92
[33] = tested on: Malme-3M
[34] = tested on: MDA-MB-231
[35] = tested on: PC-3
[36] = tested on: A498
[37] = tested on: LOX IMVI
[38] = tested on: K562
[39] = tested on: CCRF-CEM
[40] = tested on: SF-295
[41] = tested on: SN12C
[42] = tested on: M14
[43] = tested on: SW-620
[44] = tested on: TK-10
[45] = tested on: MDA-MB-435
[46] = tested on: 786-0
[47] = tested on: NCI-H23
[48] = tested on: NCI/ADR-RES
[49] = tested on: SK-MEL-28
[50] = tested on: COLO 205
[51] = tested on: RXF 393
[52] = tested on: SR
[53] = tested on: Hs-578T
[54] = tested on: HT-29
[55] = tested on: NCI-H522
[56] = tested on: MDA-N
[57] = tested on: CAKI-1
[58] = tested on: KM12
[59] = tested on: ACHN

Cc1nnc2cc(C(=O)O)c3ccccc3n2c1=O
GI50 [1]: > 10 µM (inactive) | GI50 [2]: > 10 µM (inactive) | GI50 [3]: > 10 µM (inactive) | GI50 [4]: > 10 µM (inactive) | GI50 [5]: > 10 µM (inactive) | GI50 [6]: > 10 µM (inactive) | GI50 [7]: > 10 µM (inactive) | GI50 [8]: > 10 µM (inactive) | GI50 [9]: > 10 µM (inactive) | GI50 [10]: > 10 µM (inactive) | GI50 [11]: > 10 µM (inactive) | GI50 [12]: > 10 µM | GI50 [13]: > 10 µM (inactive) | GI50 [14]: > 10 µM (inactive) | GI50 [15]: > 10 µM (inactive) | GI50 [16]: 2.55 µM (inactive) | GI50 [17]: > 10 µM (inactive) | GI50 [18]: > 10 µM (inactive) | GI50 [19]: > 10 µM (inactive) | GI50 [20]: > 10 µM (inactive) | GI50 [21]: > 10 µM (inactive) | GI50 [22]: > 10 µM (inactive) | GI50 [23]: > 10 µM (inactive) | GI50 [24]: > 10 µM (inactive) | GI50 [25]: > 10 µM (inactive) | GI50 [26]: > 10 µM (inactive) | GI50 [27]: > 10 µM (inactive) | GI50 [28]: > 10 µM (inactive) | GI50 [29]: > 10 µM (inactive) | GI50 [30]: > 10 µM (inactive) | GI50 [31]: > 10 µM (inactive) | GI50 [32]: > 10 µM (inactive) | GI50 [33]: > 10 µM (inactive) | GI50 [34]: > 10 µM (inactive) | GI50 [35]: > 10 µM (inactive) | GI50 [36]: > 10 µM (inactive) | GI50 [37]: > 10 µM (inactive) | GI50 [38]: > 10 µM (inactive) | GI50 [39]: > 10 µM (inactive) | GI50 [40]: > 10 µM (inactive) | GI50 [41]: > 10 µM (inactive) | GI50 [42]: > 10 µM (inactive) | GI50 [43]: > 10 µM (inactive) | GI50 [44]: > 10 µM (inactive) | GI50 [45]: > 10 µM (inactive) | GI50 [46]: > 10 µM (inactive) | GI50 [47]: > 10 µM (inactive) | GI50 [48]: > 10 µM (inactive) | GI50 [49]: > 10 µM (inactive) | GI50 [50]: > 10 µM (inactive) | GI50 [51]: > 10 µM (inactive) | GI50 [52]: > 10 µM (inactive) | GI50 [53]: > 10 µM (inactive) | GI50 [54]: > 10 µM (inactive) | GI50 [55]: > 10 µM (inactive) | GI50 [56]: > 10 µM (inactive) | GI50 [57]: > 10 µM (inactive)

N#CCN1CCCN(CC#N)CCN(CC#N)CCCN(CC#N)CC1
GI50 [1]: > 100 µM (inactive) | GI50 [2]: > 100 µM (inactive) | GI50 [58]: 39.9 µM (inactive) | GI50 [3]: > 100 µM (inactive) | GI50 [4]: > 100 µM (inactive) | GI50 [5]: 54.5 µM (inactive) | GI50 [6]: > 100 µM (inactive) | GI50 [7]: > 100 µM (inactive) | GI50 [9]: > 100 µM (inactive) | GI50 [10]: > 100 µM (inactive) | GI50 [11]: > 100 µM (inactive) | GI50 [13]: > 100 µM (inactive) | GI50 [14]: > 100 µM (inactive) | GI50 [15]: > 100 µM (inactive) | GI50 [16]: > 100 µM (inactive) | GI50 [17]: > 100 µM (inactive) | GI50 [18]: > 100 µM (inactive) | GI50 [19]: > 100 µM (inactive) | GI50 [20]: > 100 µM (inactive) | GI50 [21]: > 100 µM (inactive) | GI50 [22]: > 100 µM (inactive) | GI50 [23]: > 100 µM (inactive) | GI50 [24]: > 100 µM (inactive) | GI50 [25]: > 100 µM (inactive) | GI50 [26]: > 100 µM (inactive) | GI50 [27]: 43.8 µM (inactive) | GI50 [28]: > 100 µM (inactive) | GI50 [29]: > 100 µM (inactive) | GI50 [30]: > 100 µM (inactive) | GI50 [31]: > 100 µM (inactive) | GI50 [32]: > 100 µM (inactive) | GI50 [33]: > 100 µM (inactive) | GI50 [34]: > 100 µM (inactive) | GI50 [35]: > 100 µM (inactive) | GI50 [36]: > 100 µM (inactive) | GI50 [37]: 16.7 µM (inactive) | GI50 [38]: > 100 µM (inactive) | GI50 [39]: 89.9 µM (inactive) | GI50 [40]: > 100 µM (inactive) | GI50 [41]: > 100 µM (inactive) | GI50 [42]: > 100 µM (inactive) | GI50 [43]: 86.9 µM (inactive) | GI50 [44]: > 100 µM (inactive) | GI50 [45]: > 100 µM (inactive) | GI50 [46]: > 100 µM (inactive) | GI50 [47]: > 100 µM (inactive) | GI50 [48]: > 100 µM (inactive) | GI50 [49]: > 100 µM (inactive) | GI50 [50]: 11.4 µM (inactive) | GI50 [51]: > 100 µM (inactive) | GI50 [52]: > 100 µM (inactive) | GI50 [59]: > 100 µM (inactive) | GI50 [53]: > 100 µM (inactive) | GI50 [54]: > 10 µM (inactive) | GI50 [55]: > 100 µM (inactive) | GI50 [56]: > 100 µM (inactive) | GI50 [57]: > 100 µM (inactive)

COc1ccc2c3c(c(=O)n(C)c2c1OC)C=CC(C)(C)O3
GI50 [1]: 25.8 µM (inactive) | GI50 [2]: 23.9 µM (inactive) | GI50 [58]: 21.6 µM (inactive) | GI50 [3]: 37.8 µM (inactive) | GI50 [4]: 22.2 µM (inactive) | GI50 [5]: 10 µM (inactive) | GI50 [6]: 48 µM (inactive) | GI50 [7]: 32.1 µM (inactive) | GI50 [8]: 23.9 µM (inactive) | GI50 [9]: 13.3 µM (inactive) | GI50 [10]: 20.7 µM (inactive) | GI50 [11]: 24.4 µM (inactive) | GI50 [12]: 13.4 µM | GI50 [13]: 22.1 µM (inactive) | GI50 [14]: 19.1 µM (inactive) | GI50 [15]: 36.1 µM (inactive) | GI50 [16]: 2.78 µM (inactive) | GI50 [17]: 42.6 µM (inactive) | GI50 [18]: 44.7 µM (inactive) | GI50 [19]: 30.6 µM (inactive) | GI50 [20]: 29.5 µM (inactive) | GI50 [21]: 36.8 µM (inactive) | GI50 [22]: 43.7 µM (inactive) | GI50 [23]: 39.2 µM (inactive) | GI50 [24]: 80.2 µM (inactive) | GI50 [25]: 20.9 µM (inactive) | GI50 [27]: 11.2 µM (inactive) | GI50 [28]: 82 µM (inactive) | GI50 [29]: 26.8 µM (inactive) | GI50 [30]: 29.9 µM (inactive) | GI50 [31]: 35.3 µM (inactive) | GI50 [32]: 18 µM (inactive) | GI50 [33]: 50.4 µM (inactive) | GI50 [34]: 22 µM (inactive) | GI50 [35]: 33.7 µM (inactive) | GI50 [36]: 17.9 µM (inactive) | GI50 [37]: 33.7 µM (inactive) | GI50 [39]: 23.2 µM (inactive) | GI50 [40]: 36.7 µM (inactive) | GI50 [41]: 12.7 µM (inactive) | GI50 [42]: 48.3 µM (inactive) | GI50 [43]: 28.4 µM (inactive) | GI50 [44]: 28.8 µM (inactive) | GI50 [45]: 38.3 µM (inactive) | GI50 [46]: 43.1 µM (inactive) | GI50 [47]: 22.8 µM (inactive) | GI50 [48]: 18 µM (inactive) | GI50 [49]: 41.9 µM (inactive) | GI50 [50]: 19.7 µM (inactive) | GI50 [51]: 26.5 µM (inactive) | GI50 [52]: 3.46 µM (inactive) | GI50 [59]: 13.7 µM (inactive) | GI50 [53]: 23.5 µM (inactive) | GI50 [54]: 24 µM (inactive) | GI50 [55]: 34.5 µM (inactive) | GI50 [56]: 21.7 µM (inactive) | GI50 [57]: 13.5 µM (inactive)
